These results are taken from PubChem BioAssay AID489040 (Sanford-Burnham Center for Chemical Genomics, 2010).

Calls of active or inactive are those of the source.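 How the source made its calls: active means mean half-maximal activating concentration from the dose-response fit at or below a set limit; inactive means the rest.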

The target in the experiment is CHO-XBP1 luciferase reporter, IRE1-XBP1 UPR activation. As to the kind of experiment: XBP1 luciferase reporter activation – CHO-XBP1 cells, luminescence, counter-screen for apoptotic UPR arm activators, dose response (AID 489040).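 Further: reporter read after six hours of compound exposure.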 In general terms: In a reporter assay the amount or activity of a reporter protein is the signal.
Take `C=CCN=c1scc(-c2ccco2)n1/N=C/c1ccc(O)c(O)c1O`: the EC50 was > 80 µM (inactive).

On to `Cc1cc(C)cc(NC(=O)/C(C#N)=C/c2cn(CC(=O)NCc3ccco3)c3ccccc23)c1`, for which the EC50 is > 80 µM (inactive).

For `COc1ccccc1N1CCN(Cc2ccc(O)c3ncccc23)CC1`, the EC50 is > 80 µM (inactive).

With `CN(C)C(=O)CSc1cccc2cccnc12`, the EC50 is > 80 µM (inactive).

On to `CC(C)c1nnc(NC(=O)CCS(=O)(=O)c2nc(-c3cccs3)cc(C(F)(F)F)n2)s1`, for which the EC50 was > 80 µM (inactive).

Take `O=[N+]([O-])c1cc(O)c2ncccc2c1`: the EC50 is > 80 µM (inactive).

`CCOC(=O)c1c2ccc(OCC(=O)N/N=C/c3ccc(C)cc3)cc2n2ccccc12`: the EC50 was > 80 µM (inactive).

For the compound `CC(C)C(=O)N1CCN(c2ccc(NC(=O)c3ccc([N+](=O)[O-])o3)cc2)CC1`, the EC50 is > 80 µM (inactive).

For the compound `COc1cc(/C=C(/C#N)c2nc3ccccc3[nH]2)ccc1OCC(=O)Nc1ccccc1C`, the EC50 was > 80 µM (inactive).

In the case of `Cc1cccc(-n2ncc(Cl)c(Cl)c2=O)c1`, the EC50 was > 80 µM (inactive).

Regarding `CCOC(=O)c1ccc(N2C(=O)C=CC2=O)cc1`, the EC50 was > 80 µM (inactive).

`O=C(/C=C/c1ccc(O)c(O)c1)c1ccccc1O`: the EC50 is > 80 µM (inactive).

Take `O=S1(=O)Nc2c(ccc3cccnc23)-c2ccccc21`: the EC50 was > 80 µM (inactive).

Turning to `O=C(CCN1C(=O)C2C3C=CC(C4CC34)C2C1=O)Oc1cccc2cccnc12` (configuration not stated), the EC50 was > 80 µM (inactive).

For the compound `O=C(N/N=C/c1cccc2cccnc12)c1ccccc1O`, the EC50 was > 80 µM (inactive).

Consider `Cc1ccc(CN2CCN(/N=C/c3ccc(O)c(O)c3)CC2)cc1`, for which the EC50 was > 80 µM (inactive).

As for `Cc1cccnc1Nc1nc(-c2ccc(O)c(O)c2)cs1`, the EC50 entry is “inactive”.

Regarding `Cc1ccc(-c2cc(NC(=O)CCl)n(-c3ccccc3)n2)cc1`, the EC50 was > 80 µM (inactive).

Regarding `CC(C)c1ccc(N2C(=O)CC(Sc3nc4ccccc4o3)C2=O)cc1` (configuration not stated), the EC50 was > 80 µM (inactive).

Turning to `O=C1CC(c2cccc(Cl)c2)CC(O)=C1C=Nc1ccccc1` (configuration not stated), the EC50 is > 80 µM (inactive).

On to `C=CCN=c1scc(C)n1/N=C/c1ccc(O)c(O)c1`, for which the EC50 is 17.4 µM.

Consider `Oc1ccc(/C=N/Nc2ccc(C(F)(F)F)cn2)cc1O`, for which the EC50 is > 80 µM (inactive).

`O=C(Oc1c(CN2CCOCC2)cc(Cl)c2cccnc12)c1ccc(F)cc1`: the EC50 is > 80 µM (inactive).

Regarding `CCc1nnc(NC(=O)CSc2nc(-c3ccccc3)cc(-c3ccc(OC)cc3)c2C#N)s1`, the EC50 was > 80 µM (inactive).

Take `Cc1cccc(/C=C/C(=O)c2ccc([N+](=O)[O-])o2)c1`: the EC50 is > 80 µM (inactive).

Consider `Cc1nn(-c2ccccc2)c(C)c1/C=N/NC(=O)CSc1nc2ccccc2c(=O)n1-c1ccc(Br)cc1`, for which the concentration for a half-maximal effect (EC50) was 9.09 µM.

With `COc1ccc(N=Cc2c(O)c3ccccc3oc2=O)cc1`, the EC50 was 11.6 µM.

With `C=C1C(=O)C=C[C@]2(C)C[C@@H]3OC(=O)[C@](C)(O)[C@H]3C[C@@H]12`, the EC50 was > 80 µM (inactive).

On to `Cc1ccc(-c2csc3ncnc(Sc4nnc(CN5CCCCCC5=O)o4)c23)cc1`, for which the EC50 is > 80 µM (inactive).

As for `Oc1ccc(-c2csc(Nc3ccccn3)n2)cc1O`, the EC50 was > 80 µM (inactive).

In the case of `Cc1ccc(C(C)C)c(OCc2ccc(C(=O)N/N=C/c3ccc(O)c(O)c3)cc2)c1`, the EC50 is 4.41 µM.

Regarding `Cc1cccnc1Nc1nc(-c2ccccn2)cs1`, the EC50 is > 80 µM (inactive).

`O=C1C=CC(=O)C(C2=C3C(=O)N(CCc4ccccc4)CC(=O)N3CCC2)=C1`: the EC50 was > 80 µM (inactive).

With `Cc1ccc(C(=O)Oc2ccc(Cl)c3cccnc23)cc1[N+](=O)[O-]`, the EC50 is > 80 µM (inactive).

For the compound `CC1(C)CCSC(/C=C/c2ccccc2)=N1`, the EC50 was > 80 µM (inactive).

Turning to `C/C(=N\NC(=O)c1cccc(Br)c1)c1ccccn1`, the EC50 was > 80 µM (inactive).

For the compound `Cc1ccc(NC(=O)COc2ccc(/C=C3/SC(=Nc4ccccc4)N(Cc4cccnc4)C3=O)cc2)cc1`, the EC50 entry is “inactive”.

As for `O=C(NC1CCCC1)C(c1ccc(F)cc1)N(Cc1ccc(Cl)cc1)C(=O)CCl` (configuration not stated), the EC50 was > 80 µM (inactive).

With `COc1cc(/C=C2\CC(C(C)(C)C)C/C(=C\c3cc(OC)c(OC)c(OC)c3)C2=O)cc(OC)c1OC` (configuration not stated), the EC50 is > 80 µM (inactive).

For the compound `Cc1ccc(C)c(NC(=S)c2ccccn2)c1`, the EC50 was > 80 µM (inactive).

For the compound `O=C(C=C=Nc1ccccc1)C(=O)N=C=Cc1ccccc1`, the EC50 was > 80 µM (inactive).

With `CC(C)[C@H](NC(=O)OC(C)(C)C)c1nnc(S(=O)(=O)Cc2c(F)cccc2Cl)o1`, the EC50 was > 80 µM (inactive).

Consider `Cc1ccc(NC(=O)Cn2ncc(Cl)c(Cl)c2=O)cc1S(=O)(=O)N1CCCCC1`, for which the EC50 was > 80 µM (inactive).

`Oc1ccc(/C=N/N2CCN(C3c4ccccc4-c4ccccc43)CC2)cc1O`: the concentration giving a half-maximal response (EC50) is 18.8 µM.

As to `C/C(=N\NC(=O)c1cc(-c2cccs2)nc2ccccc12)c1ccccn1`, the EC50 is > 80 µM (inactive).

Turning to `Cn1nnnc1Sc1ncnc2scc(-c3cc4ccccc4o3)c12`, the EC50 was > 80 µM (inactive).

As to `CC(C)c1ccc(NC(=O)/C(C#N)=C/c2ccncc2)cc1`, the EC50 is > 80 µM (inactive).

On to `COc1ccc(N2C(=O)/C(=C/C=C/c3ccccc3[N+](=O)[O-])C(=O)NC2=S)cc1`, for which the EC50 was > 80 µM (inactive).

Take `CN1C(=O)/C(=C/c2cccn2-c2ccc3ccccc3c2)C(=O)NC1=S`: the EC50 was 7.87 µM.

On to `COc1cc(/C=C2\C(=O)ON=C2c2ccc(Cl)cc2)ccc1O`, for which the EC50 is > 80 µM (inactive).

On to `CCCn1c(CC)nc([N+](=O)[O-])c1S(=O)(=O)c1ccccc1`, for which the EC50 was > 80 µM (inactive).

`FC(F)(F)c1nnc2c(Sc3ccc(Cl)cc3)nc3ccccc3n12`: the EC50 is > 80 µM (inactive).

For the compound `Cc1cc(N2CCN(c3ccc([N+](=O)[O-])c4cccnc34)CC2)c2ccccc2n1`, the EC50 was > 80 µM (inactive).

Regarding `O=C(CCl)Nc1ccc(-c2ccccc2)cc1`, the EC50 is > 80 µM (inactive).

With `CCOC(=O)/C=c1\s/c(=C\c2ccc3cc(OC)ccc3c2)c(=O)n1CC(=O)NCC1CCCO1` (configuration not stated), the concentration for a half-maximal effect (EC50) was 17.4 µM.

Take `Cc1ccc(C)c(N=Cc2c(O)c3ccccc3oc2=O)c1`: the EC50 result is “inactive”.

As to `Cc1ccc(Sc2nc(-c3ccccc3)nnc2C(F)(F)F)cc1`, the EC50 is > 80 µM (inactive).

On to `Cc1cccc2sc(NC(=O)c3cc(S(=O)(=O)N(C)C)ccc3N3CCCC3)nc12`, for which the EC50 is 5.3 µM.

For `COc1ccc2c(c1)CCc1c(C(=O)Nc3cc(C)n(Cc4ccc(Cl)cc4)n3)noc1-2`, the EC50 is > 80 µM (inactive).

Take `O=C(NCc1cccnc1)/C(=C\c1ccc(-c2ccc(Br)cc2)o1)S(=O)(=O)c1ccccc1`: the EC50 is > 80 µM (inactive).

On to `Cc1ccc(N2C(=O)NC(=O)/C(=C/C=C/c3ccco3)C2=O)cc1`, for which the EC50 was > 80 µM (inactive).

Consider `Nc1c(C(=O)Nc2ccc(S(=O)(=O)N3CCCC3)cc2)sc2nc3ccc(OC(F)(F)F)cc3cc12`, for which the EC50 is > 80 µM (inactive).

As for `Cc1c(C(=O)c2no[n+]([O-])c2C(=O)c2cnn(C)c2C)cnn1C`, the EC50 is > 80 µM (inactive).

As to `Cc1ccc(-c2nc(SCC(=O)Nc3cc(C)on3)c3c(=O)n(C)c(=O)n(C)c3n2)cc1`, the EC50 result is “inactive”.

Take `O=C(Nc1ccc(N2CCOCC2)cc1)c1ccc([N+](=O)[O-])o1`: the EC50 is > 80 µM (inactive).

`CCn1cc(C(=O)NC(=S)Nc2sc3c(c2C(=O)OC)CCCCCC3)cn1`: the EC50 entry was “inactive”.

Take `COc1nc(N)nc(NC(=O)c2cccs2)c1N=O`: the EC50 is > 80 µM (inactive).

Consider `CCCCCOc1ccc(N2C(=O)CC(N(O)c3ccccc3)C2=O)cc1` (configuration not stated), for which the EC50 was > 80 µM (inactive).

For `CCc1ccc(-n2c(SCC(=O)c3ccc4c(c3)NC(=O)CO4)nc3ccccc3c2=O)cc1`, the EC50 was 10.5 µM.

Consider `O=c1nc(Nc2cccc(Cl)c2)oc2cc(Cl)oc(=O)c12`, for which the EC50 was > 80 µM (inactive).

Turning to `COc1ccc(-c2cc(=O)oc3c(C)c(OC(=O)c4cccs4)ccc23)cc1`, the EC50 is > 80 µM (inactive).

Consider `Cc1cccc(Cn2cc(/C=C/[N+](=O)[O-])c3ccccc32)c1`, for which the EC50 is > 80 µM (inactive).

In the case of `CN(C)S(=O)(=O)c1cccc(NC(=O)CSc2cccc3cccnc23)c1`, the EC50 is > 80 µM (inactive).

Turning to `N#C/C(=C\c1ccc([N+](=O)[O-])o1)C(=O)Nc1ccc(F)cc1`, the EC50 is > 80 µM (inactive).

Take `O=C(/C=C/c1ccco1)NC(=S)Nc1ccc(O)c(-c2nc3ccccc3s2)c1`: the 50% effective concentration (EC50) is 9.84 µM.

As for `O=C(N/N=C(\c1ccccc1)c1ccccn1)c1cccc([N+](=O)[O-])c1`, the EC50 is > 80 µM (inactive).

Regarding `O=Cc1ccc(O)c2ncccc12`, the EC50 is > 80 µM (inactive).

On to `Oc1c(CN2CCCCC2)cc(Br)c2cccnc12`, for which the EC50 was > 80 µM (inactive).

For `O=C(NCc1ccccc1Cl)c1cccc2c1C(=O)c1ccc(-c3ccc(OC(F)(F)F)cc3)cc1S2(=O)=O`, the EC50 result was “inactive”.

As for `S=C(Nc1ccccc1)Nc1nccs1`, the EC50 is > 80 µM (inactive).

As for `Cc1ccc(S(=O)(=O)N(C(=O)c2ccncc2)c2ccc(OC(=O)c3ccncc3)c3ccccc23)c(C)c1`, the EC50 is > 80 µM (inactive).

`CC1CCCCC1N1CN=C(Nc2nc3ccccc3s2)NC1` (configuration not stated): the EC50 is > 80 µM (inactive).

For `O=C1/C(=C/c2ccccc2[N+](=O)[O-])COc2ccccc21`, the EC50 is > 80 µM (inactive).

With `CCNc1ccccc1CP(=O)(c1ccccc1)c1ccccc1O` (configuration not stated), the EC50 is > 80 µM (inactive).

On to `C=CCn1nc([N+](=O)[O-])nc1Sc1cccc2cccnc12`, for which the EC50 was > 80 µM (inactive).

On to `CCCCCCCCCCn1c2c(c(=N)c3c1CCC3)CCC2`, for which the concentration for a half-maximal effect (EC50) is 19.8 µM.

Take `O=C(C#Cc1ccccc1)c1cccc([N+](=O)[O-])c1`: the EC50 is > 80 µM (inactive).

In general, EC50 refers to the concentration that produces a half-maximal response.
